The test system of assay [1] is H226 (human mesothelioma (lung) cancer cell line). Put plainly: 72 hr ATP luminescence proliferation inhibition, H226. In kind it is cell-based. The method, then:
(§1) Proliferation inhibition was measured using a 72 hr ATP luminescence assay (Cheng et al., U.S. Pat. No. 8,394,922 B2 (2013)).
(§2) Proliferation inhibition was measured against: (a) H226 (human mesothelioma (lung) cancer cell line); (b) N87 (human gastric (stomach) cancer cell line); (c) OVCAR3 (human ovarian cancer cell line); (d) HCT116 (human colon cancer cell line); and (e) HCT116/VM46 (multidrug and paclitaxel resistant subline of HCT116).

Assay [2] relates to N87 (human gastric (stomach) cancer cell line). Put plainly: 72 hr ATP luminescence proliferation inhibition, N87. The conditions noted are these: read-out: Proliferation Inhibition of Cancer Cells EC50, N87. Format: cell-based. On the procedure:
as §1, §2

Assay [3] concerns OVCAR3 (human ovarian cancer cell line). Put plainly: 72 hr ATP luminescence proliferation inhibition, OVCAR3. In kind it is cell-based. On the procedure: as §1, §2
For assay [4], the system named is HCT116 (human colon cancer cell line). Briefly: 72 hr ATP luminescence proliferation inhibition, HCT116. Format: cell-based. The method, then: as §1, §2
Assay [5] concerns HCT116/VM46 (multidrug and paclitaxel resistant subline of HCT116). Put plainly: 72 hr ATP luminescence proliferation inhibition, HCT116/VM46. The note with it: read-out: Proliferation Inhibition of Cancer Cells EC50, HCT116/VM46. In kind it is cell-based, human. The method, then: as §1, §2
[6] abbreviates: Homo sapiens, NCI-H226, read-out: Proliferation Inhibition of Cancer Cells EC50, H226.
The mark [7] stands for this setting: Homo sapiens, OVCAR-3, read-out: Proliferation Inhibition of Cancer Cells EC50, OVCAR3.
Setting [8] is: Homo sapiens, HCT-116, read-out: Proliferation Inhibition of Cancer Cells EC50, HCT116.
[9] abbreviates: Homo sapiens, HCT-116/VM46, HCT116/VM46 cell line.
The mark [10] stands for this setting: read-out: Proliferation Inhibition of Cancer Cells EC50, H226.
The mark [11] stands for this setting: read-out: Proliferation Inhibition of Cancer Cells EC50, OVCAR3.
[12] abbreviates: read-out: Proliferation Inhibition of Cancer Cells EC50, HCT116.

Read-outs that look alike come from different tables or passages of the source.

Among the data in US10287291B2, “Seco-cyclopropapyrroloindole compounds, antibody-drug conjugates thereof, and methods of making and use” (priority 2016, dated 2019) are EC50 values, retold here.

Turning to `COc1cc2cc(C(=O)N3C[C@@H](CCl)c4c3cc(O)c3[nH]c(C(=O)N5CCOCC5)cc43)[nH]c2c(OC)c1OC` [Ia-30], the EC50 is 0.018 nM in assay [1] (setting [6]); 0.045 nM in assay [2] (Homo sapiens); 0.032 nM in assay [3] (setting [7]); 0.033 nM in assay [4] (setting [8]); 0.097 nM in assay [5] (setting [9]).

Turning to `CC(C)CCOc1ccc2[nH]c(C(=O)N3C[C@@H](CCl)c4c3cc(O)c3[nH]c(C(=O)N5CCOCC5)cc43)cc2c1` [Ia-31], the EC50 was determined as 0.24 nM in assay [1] (setting [10]); 0.43 nM in assay [2]; 0.53 nM in assay [3] (setting [11]); 0.62 nM in assay [4] (setting [12]); 0.86 nM in assay [5] (HCT116/VM46 cell line).

Consider `O=C(Nc1ccc2nc(C(=O)N3C[C@@H](CCl)c4c3cc(O)c3[nH]c(C(=O)N5CCOCC5)cc43)cn2c1)c1ccc(O)cc1` [Ib-01], for which the EC50 in assay [1] (setting [10]) came to 2.39 nM; in assay [2], 3.6 nM; in assay [3] (setting [11]), 2.8 nM; in assay [4] (setting [12]), 3.2 nM; in assay [5] (HCT116/VM46 cell line), 3.5 nM.

Regarding `COCOc1ccc(C(=O)Nc2ccc3nc(C(=O)N4C[C@@H](CCl)c5c4cc(O)c4[nH]c(C(=O)N6CCOCC6)cc54)cn3c2)cc1` [Ib-02], the EC50 in assay [1] (setting [10]) amounted to 1 nM; in assay [2], 0.96 nM; in assay [3] (setting [11]), 0.53 nM; in assay [4] (setting [12]) it was 0.64 nM; in assay [5] (HCT116/VM46 cell line) it was 1.9 nM.

`Nc1ccc2[nH]c(C(=O)Nc3ccc4[nH]c(C(=O)N5C[C@@H](CCl)c6c5cc(O)c5[nH]c(C(=O)N7CCOCC7)cc65)cc4c3)cc2c1` [Ic-01]: the EC50 in assay [1] (setting [6]) came out at 0.91 nM; in assay [2] (Homo sapiens) it was 1.5 nM; in assay [3] (setting [7]), 0.89 nM; in assay [4] (setting [8]), 0.43 nM; in assay [5] (setting [9]), 0.75 nM.
